From patent US20050075371A1, “Methods and compositions for the oral administration of prodrugs of proton pump inhibitors” (ALLERGAN, INC., priority 2003, published 2005)

Key:
[1] = Systemic half-life after oral or intravenous administration in rats; type: in vivo, rats (Sprague-Dawley); conditions: rats, oral solution; for Rat T1/2 Prodrug: half-life of intact prodrug, NC = plasma concentration of prodrug too low to calculate half-life, or undetected
Protocol: (§1) Blood concentrations of the compounds omeprazole, lansoprazole, pantoprazole, rabeprazole, and test compounds were quantified using an achiral liquid chromatography tandem mass spectrometry method (LC-MS/MS). Systemic pharmacokinetic parameters were determined for omeprazole or lansoprazole using non-compartmental analysis in Watson® version 6.3, available from InnaPhase Corporation, Philadelphia, Pa.

[2] = Systemic half-life after oral or intravenous administration in dogs; type: in vivo, dogs (beagle); conditions: for Dog T1/2 PPI / Dog T1/2 Prodrug / half-life: oral solution, unit inferred; for Dog T1/2 PPI / half-life: systemic half-life of the proton pump inhibitor; for Dog T1/2 Prodrug: half-life of intact prodrug, NC = plasma concentration of prodrug too low to calculate half-life, or undetected; for t1/2 (systemic half-life in dogs after oral administration): Table 2D; for half-life: beagle, dog, blood, po, read-out: Dog T1/2 PPI (converted)
Protocol: as §1

[3] = system: Caco-2 cells; experiment: Membrane permeability (Papp) across Caco-2 cell monolayer, apical to basolateral; type: in vitro ADME; conditions: Caco-2, apical to basolateral, 10 μM, 37° C.
Protocol: Determination of membrane permeability in all examples described herein was accomplished by the following procedure. This procedure is also used to determine whether a given prodrug falls within the scope of those claims given herein which relate to membrane permeability.
Caco-2 cells were seeded on Costar™ 12 mm diameter, 0.4 μm pore size transwell filters, and were cultured at 37° C., 5% CO2 in a humidified tissue culture chamber.
DMEM was equilibrated as a transport buffer in 37° C. water bath an hour before experiment. The cells were then equilibrated in transport buffer for 1 hr at 37° C.
Dosing solution (10 μM) was prepared by adding a 20 μL aliquot of a 10 mM stock solution of the prodrug to 20 mL of transport buffer.
Transport across Caco-2 cell monolayer was measured at 37° C., in the apical to basolateral direction (n=3).
Transport buffer was removed from both apical and basolateral compartment of filters. Dosing solution (0.2 mL) was added to the apical compartment of the cell layers on transwell filters, and 0.8 ml fresh pre-warmed transport buffer was added to basolateral compartment. Timing was started for transport, and at 5, 20, and 60 min after transport started, sample fluid (400 μL) was collected from the basolateral compartment. Fresh transport buffer (400 μL) was added back to the basolateral compartment, and the fluid was thoroughly mixed.
Transport samples, dosing solution, and standards(100 μL) each were mixed with 100 μl of a 500 ng/ml internal standard (Lansoprazole-D) for LC-MS/MS analysis, and part of each sample (100 μL) was vortexed and transferred into glass LC-MS/MS vials for analysis.
The apparent permeability coefficient (Papp, cm/sec), otherwise known herein as the membrane permeability, is determined from the following relationship: Papp=J/(ACo) where J (pmol/min) is the transport rate, meaning the rate of prodrug movement through the cell layer, A (cm^2) is the filter surface area, and Co (μM) is the initial dosing concentration.
The transport rate J, is calculated as the slope of the linear regression fit for the transport amount over time data using Microsoft Excel® 97 SR-2 (Microsoft Corp. Redmond, Wash.).
Lucifer yellow (LY) was used as a paracellular permeability reference standard to determine integrity of cell layers used in the experiments. LY transport in the apical to basolateral direction was carried out in the same manner as described above. Fluorescence level in basolateral fluid sampled at 5, 20, and 60 min post dose was determined using Fluostar Galaxy (BMG Labtechnologies, Durham, N.C.) at excitation/emission wavelengths of 485/520 nm. A standard curve covering the range from 0.002 to 0.5 mg/mL is constructed to quantify the amount of LY in the transport sample to calculate permeability coefficient (Papp).

[4] = systemic half-life of the proton pump inhibitor, unit inferred

| SMILES | Rat T1/2 PPI [1, 4] [h] | Dog T1/2 PPI [2] [h] | Dog T1/2 Prodrug [2] [h] | further results |
| --- | --- | --- | --- | --- |
| COc1ccnc(C[S+]([O-])c2nc3cc(OC(F)F)ccc3n2S(=O)(=O)c2cc(C(=O)O)ccc2C)c1OC (stereo not shown) [Compound 29] | 1.01 | 0.958 |  |  |
| COc1ccc2c(c1)nc([S+]([O-])Cc1ncc(C)c(OC)c1C)n2S(=O)(=O)c1c(C)cc(OCC(C)(C)C(=O)O)cc1C (stereo not shown) [Compound 4] | 0.708 | 0.837 | 1.26 | Rat T1/2 Prodrug ([1]; unit inferred): 0.342 h; Permeability [3]: 0.52 ×10⁻⁶ cm/s; t1/2 (systemic half-life in dogs after oral administration) [2]: 0.84 h |
| COc1ccc2c(c1)nc([S+]([O-])Cc1ncc(C)c(OC)c1C)n2S(=O)(=O)c1ccc(OCC(=O)O)c(OCC(=O)O)c1 (stereo not shown) [Compound 24] | 0.384 | 1.37 |  |  |
| COCCCOc1ccnc(C[S+]([O-])c2nc3ccccc3n2S(=O)(=O)c2ccc(C(=O)O)cc2)c1C (stereo not shown) [Compound 33] |  | 0.894 | 0.746 |  |
| COCCCOc1ccnc(C[S+]([O-])c2nc3ccccc3[nH]2)c1C (stereo not shown) [Rabeprazole, reference compound] |  |  |  | half-life [2]: 0.369 h |
| COc1ccc2c(c1)nc([S+]([O-])Cc1ncc(C)c(OC)c1C)n2S(=O)(=O)c1cccc(C(=O)O)c1 (stereo not shown) [Compound 6] | 1.93 | 1.91 | 0.303 | Permeability [3]: 0.067 ×10⁻⁶ cm/s; t1/2 (systemic half-life in dogs after oral administration) [2]: 1.9 h |
| COc1ccc2c(c1)nc([S+]([O-])Cc1ncc(C)c(OC)c1C)n2S(=O)(=O)c1c(C)cc(OCC(=O)O)cc1C (stereo not shown) [Compound 2] |  | 1.61 | 0.113 | Permeability [3]: 0.054 ×10⁻⁶ cm/s; t1/2 (systemic half-life in dogs after oral administration) [2]: 1.6 h |
| Cc1c(OCC(F)(F)F)ccnc1C[S+]([O-])c1nc2ccccc2n1S(=O)(=O)c1cccc(C(=O)O)c1 (stereo not shown) [Compound 7] | 1.93 | 0.893 | 0.206 | Permeability [3]: 0.16 ×10⁻⁶ cm/s; t1/2 (systemic half-life in dogs after oral administration) [2]: 0.89 h |
| COCCCOc1ccnc(C[S+]([O-])c2nc3ccccc3n2S(=O)(=O)c2c(C)cc(OCC(=O)O)cc2C)c1C (stereo not shown) [Compound 32] |  | 1.52 | 0.526 |  |
| Cc1c(OCC(F)(F)F)ccnc1C[S+]([O-])c1nc2ccccc2n1S(=O)(=O)c1ccc(C(=O)O)cc1 (stereo not shown) [Compound 18] |  | 0.909 | 0.0899 |  |
| COc1ccc2c(c1)nc([S+]([O-])Cc1ncc(C)c(OC)c1C)n2S(=O)(=O)c1ccc(CC(=O)O)cc1 (stereo not shown) [Compound 5] | 1.7 | 1.03 | 0.269 | Permeability [3]: 0.17 ×10⁻⁶ cm/s; t1/2 (systemic half-life in dogs after oral administration) [2]: 1.0 h |
| Cc1c(OCC(F)(F)F)ccnc1C[S+]([O-])c1nc2ccccc2n1S(=O)(=O)c1ccc(OCC(C)(C)C(=O)O)cc1 (stereo not shown) [Compound 11] | 0.933 | 0.873 |  |  |
| Cc1cc(OCC(=O)O)cc(C(C)C)c1S(=O)(=O)n1c([S+]([O-])Cc2nccc(OCC(F)(F)F)c2C)nc2ccccc21 (stereo not shown) [Compound 17] |  | 1.13 | 1.49 |  |
| Cc1c(OCC(F)(F)F)ccnc1C[S+]([O-])c1nc2ccccc2n1S(=O)(=O)c1ccc(OCC(=O)O)cc1 (stereo not shown) [Compound 10] |  | 0.989 |  |  |
| COc1ccc(C(=O)O)cc1S(=O)(=O)n1c([S+]([O-])Cc2nccc(OCC(F)(F)F)c2C)nc2ccccc21 (stereo not shown) [Compound 14] | 0.536 | 1.39 | 0.118 |  |
| COc1ccc(S(=O)(=O)n2c([S+]([O-])Cc3nccc(OCC(F)(F)F)c3C)nc3ccccc32)cc1CCC(=O)O (stereo not shown) [Compound 38] | 1.43 |  |  | Rat T1/2 Prodrug ([1]; unit not given): 1.04 (0.35) |

| SMILES | Rat T1/2 PPI [1, 4] [h] | Dog T1/2 PPI [2] [h] | Dog T1/2 Prodrug [2] [h] | further results |
| --- | --- | --- | --- | --- |
| COc1ccc2c(c1)nc([S+]([O-])Cc1ncc(C)c(OC)c1C)n2S(=O)(=O)c1ccc(C(=O)O)c(C(=O)O)c1 (stereo not shown) [Compound 22] |  | 3.89 |  |  |
| COc1ccc2c(c1)nc([S+]([O-])Cc1ncc(C)c(OC)c1C)n2S(=O)(=O)c1ccc(OCC(=O)O)c(C(=O)O)c1 (stereo not shown) [Compound 23] | 2.72 | 1.22 |  |  |
| COCCCOc1ccnc(C[S+]([O-])c2nc3ccccc3n2S(=O)(=O)c2cccc(C(=O)O)c2)c1C (stereo not shown) [Compound 30] |  | 0.491 | 1.12 |  |
| COC(=O)COc1ccc(S(=O)(=O)n2c([S+]([O-])Cc3ncc(C)c(OC)c3C)nc3cc(OC)ccc32)cc1 (stereo not shown) [Compound 20] |  | 2.7 |  |  |
| Cc1c(OCC(F)(F)F)ccnc1C[S+]([O-])c1nc2ccccc2n1S(=O)(=O)c1ccc(CC(=O)O)c(CC(=O)O)c1 (stereo not shown) [Compound 12] |  | 0.931 |  |  |
| Cc1c(OCC(F)(F)F)ccnc1C[S+]([O-])c1nc2ccccc2n1S(=O)(=O)c1ccc(C(=O)O)c(OCC(=O)O)c1 (stereo not shown) [Compound 16] | 1.86 | 1 |  |  |
| COc1ccc2c(c1)nc([S+]([O-])Cc1ncc(C)c(OC)c1C)n2S(=O)(=O)c1cc(C(=O)O)ccc1C (stereo not shown) [Compound 27] | 2.17 | 1.1 | 0.117 |  |
| Cc1ccc(C(=O)O)cc1S(=O)(=O)n1c([S+]([O-])Cc2nccc(OCC(F)(F)F)c2C)nc2ccccc21 (stereo not shown) [Compound 13] | 2.35 | 1.77 | 0.122 |  |
| Cc1ccc(S(=O)(=O)n2c([S+]([O-])Cc3nccc(OCC(F)(F)F)c3C)nc3ccccc32)cc1CCC(=O)O (stereo not shown) [Compound 19] |  | 0.484 | 1.84 |  |
| Cc1c(OCC(F)(F)F)ccnc1C[S+]([O-])c1nc2ccccc2n1S(=O)(=O)c1ccc(C(=O)O)cc1 (stereo not shown) [Compound 36] | 0.389 |  |  |  |
| COCCCOc1ccnc(C[S+]([O-])c2nc3ccccc3n2S(=O)(=O)c2cc(C(=O)O)ccc2C)c1C (stereo not shown) [Compound 31] |  | 0.855 | 0.843 |  |
| COc1ccnc(C[S+]([O-])c2nc3cc(OC(F)F)ccc3n2S(=O)(=O)c2ccc(OCC(=O)O)cc2)c1OC (stereo not shown) [Compound 28] | 1.45 | 2.61 |  |  |
| Cc1cc(OCC(=O)O)cc(C)c1S(=O)(=O)n1c([S+]([O-])Cc2nccc(OCC(F)(F)F)c2C)nc2ccccc21 (stereo not shown) [Compound 34] | 1.11 |  |  |  |
| COc1ccnc(C[S+]([O-])c2nc3ccc(OC(F)F)cc3[nH]2)c1OC (stereo not shown) [Pantoprazole, reference compound] |  |  |  | half-life ([1]; Sprague-Dawley, rat, blood, systemic half-life of the proton pump inhibitor, unit inferred, read-out: Rat T1/2 PPI (converted)): 0.696 h; half-life [2]: 0.743 h |
| Cc1cc(C(=O)O)ccc1S(=O)(=O)n1c([S+]([O-])Cc2nccc(OCC(F)(F)F)c2C)nc2ccccc21 (stereo not shown) [Compound 37] | 2.19 |  |  |  |
| Cc1c(OCC(F)(F)F)ccnc1C[S+]([O-])c1nc2ccccc2n1S(=O)(=O)c1ccc(OCC(=O)O)c(OCC(=O)O)c1 (stereo not shown) [Compound 35] | 1.84 |  |  |  |
